Results published in patent US20230285405A1, “Pharmaceuticals for Treating or Preventing Nidoviruses and Picornaviruses” (priority 2020, published 2023).
Like-named read-outs stand apart in the source and are kept apart here.

What was measured:
[1] = test system: OC43; assay: Drug screening: OC43 nucleoprotein staining in infected A549-mRuby cells; format: cell-based, human beta coronavirus OC43; settings: for activity at 10 µM: Betacoronavirus 1, OC43, 96 h
Outline: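 A549 cells expressing H2B-mRuby infected with OC43 at MOI 0.3 for 1 h at 33° C, then drugs added at 10 μM final and incubated 4 days at 33° C. Viral nucleoprotein immunostained and imaged; intensity normalized to cell number and no-drug controls (=100). Hits reduced staining >3 SD in both repeats without toxicity.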

[2] = test system: A549-mRuby cells; assay: Drug screening: effect on cell growth (cell number day 4 / day 0); settings: 10 μM drug; for Growth_1: number of cells at day 4 divided by number of cells at day 0 / toxic_1: repeat #1; for Growth_2: number of cells at day 4 divided by number of cells at day 0 / toxic_2: repeat #2
Outline: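 A549 cells carrying an H2B-mRuby reporter were infected with OC43 at MOI 0.3 for 1 h at 33° C, then given drug at 10 μM final. Cell numbers were counted by imaging at day 0 and again at day 4 after 4 days at 33° C, 5% CO2, with the screen run twice.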

[3] = test system: OC43; assay: Dose-response analysis of OC43 infection; format: cell-based, human beta coronavirus OC43
Experimental: Dose-response analysis of OC43 infection was done similarly to the drug screening, except cells were seeded at a concentration of 5,000 cells per well and the media contained 2% BCS instead of 10% BCS. OC43 staining was performed 2 days after infection and analyzed similarly to what was described for the drug screening. A sigmoid fit was used to extract EC50 values using Matlab.

[4] = test system: SARS-CoV-2; assay: microbe, parasite or virus in culture; format: cell-based, SARS-CoV-2 (nCoV/Washington/1/2020)
[5] = molecular target: T1, SARS-CoV-2 3CLpro (Severe acute respiratory syndrome coronavirus 2, UniProt P0DTD1); format: cell-based
T1 construct: the SARS-CoV-2 main protease (also known as 3CLpro, Mpro and nsp5); expressed in transfected cells; host or cells: 293T cells

[6] = 10 μM drug, MOI 0.3, 4 days, OC43 staining normalized to no-drug controls, mean of the two screen repeats, read-out: OC43_mean
[7] = 10 μM drug, MOI 0.3, 4 days, normalized to no-drug controls in the same plate, repeat #1, read-out: OC43_1: % staining of OC43 in screen repeat #1
[8] = 10 μM drug, MOI 0.3, 4 days, normalized to no-drug controls in the same plate, repeat #2, read-out: OC43_2: % staining of OC43 in screen repeat #2
[9] = Betacoronavirus 1, OC43, 48 h, read-out: EC50 OC43, A549-mRuby cells, staining 2 days after infection
[10] = Severe acute respiratory syndrome coronavirus 2; read-out: EC50 SARS2
[11] = 10 μM drug, MOI 0.3, 4 days, OC43 staining normalized to no-drug controls, mean of the two screen repeats
[12] = 10 μM drug, MOI 0.3, 4 days, normalized to no-drug controls in the same plate, repeat #1
[13] = 10 μM drug, MOI 0.3, 4 days, normalized to no-drug controls in the same plate, repeat #2
[14] = A549-mRuby cells, staining 2 days after infection, read-out: EC50 OC43

Compound | hit_1 ([1]; 10 μM drug, repeat #1) | hit_2 ([1]; 10 μM drug, repeat #2) | activity at 10 µM [1, 6] | activity at 10 µM [1, 7] | activity at 10 µM [1, 8] | Growth_1: number of cells at day 4 divided by number of cells at day 0 [2] | toxic_1 [2] | Growth_2: number of cells at day 4 divided by number of cells at day 0 [2] | toxic_2 [2] | EC50 [3, 9] | EC50 [4, 10] | 3CLpro activity: percentage of GFP-expressing cells (in words) [5] | further results
Cc1nc2c([nH]1)CCN(C(=O)c1ccc(NC(=O)c3ccccc3-c3ccccc3)cc1)c1ccccc1-2.O [Conivaptan HCl] | 1 | 1 | 5.7% | 4.5% | 7% | 4.2 | 0 | 4.7 | 0 | 4.6 µM | 4 µM | statistically significant decrease | –
N#Cc1ccc2[nH]cc(CCCCN3CCN(c4ccc5oc(C(N)=O)cc5c4)CC3)c2c1.O [Vilazodone HCl] | 1 | 1 | 9.8% | 13% | 6.7% | 3.5 | 0 | 3.9 | 0 | 3.6 µM | 4.5 µM | statistically significant decrease | –
CCN(CCCCOC(=O)c1ccc(OC)c(OC)c1)C(C)Cc1ccc(OC)cc1.O (stereo not drawn) [Mebeverine Hydrochloride] | 1 | 1 | 20% | 20.1% | 19.9% | 5.2 | 0 | 3.9 | 0 | 5 µM | 10 µM | – | –
Bafetinib [Bafetinib (INNO-406)] | 1 | 1 | – | – | – | 5.0 | 0 | 3.6 | 0 | – | – | statistically significant decrease | OC43_mean [1, 11]: 13.4%; OC43_1: % staining of OC43 in screen repeat #1 [1, 12]: 17.2%; OC43_2: % staining of OC43 in screen repeat #2 [1, 13]: 9.6%; EC50 [3, 14]: 2.1 µM; EC50 ([4]; read-out: EC50 SARS2): 2.2 µM
Retapamulin | 1 | 1 | – | – | – | 4.3 | 0 | 4.1 | 0 | – | – | statistically significant decrease | OC43_mean [1]: 12.2%; OC43_1: % staining of OC43 in screen repeat #1 [1, 12]: 11.7%; OC43_2: % staining of OC43 in screen repeat #2 [1, 13]: 12.6%; EC50 [3, 14]: 4.5 µM; EC50 ([4]; read-out: EC50 SARS2): 8 µM
CN1CCCC(n2nc(Cc3ccc(Cl)cc3)c3ccccc3c2=O)CC1.O (stereo not drawn) [Azelastine HCl] | 1 | 1 | 19.1% | 19.6% | 18.5% | 4.1 | 0 | 3.2 | 0 | 3.7 µM | 2.4 µM | – | inhibition of OC43 infection (in words) ([3]; dose-response): inhibits; inhibition of SARS-CoV-2 infection (in words) [4]: inhibits
CS(=O)(=O)CCNCc1ccc(-c2ccc3ncnc(Nc4ccc(OCc5cccc(F)c5)c(Cl)c4)c3c2)o1 [Lapatinib] | – | – | – | – | – | 3.8 | – | 4.4 | – | 3.1 µM | – | statistically significant decrease | OC43_mean [1, 11]: 9.7%; OC43_1: % staining of OC43 in screen repeat #1 [1, 12]: 5.2%; OC43_2: % staining of OC43 in screen repeat #2 [1, 13]: 14.1%; EC50 ([4]; Severe acute respiratory syndrome coronavirus 2, read-out: EC50 SARS2): 1.6 µM
CCCNCC(O)COc1ccccc1C(=O)CCc1ccccc1.O (stereo not drawn) [Propafenone HCl] | 1 | 1 | 19.8% | 20.4% | 19.2% | 4.7 | – | 3.4 | – | 7.3 µM | 3.7 µM | – | –
COc1cc2c(Oc3ccc4[nH]c(C)cc4c3F)ncnc2cc1OCCCN1CCCC1 [Cediranib (AZD2171), Cediranib] | 1 | 1 | 19% | 17.8% | 20.2% | 2.6 | 0 | 2.4 | 0 | 0.52 µM | 3.6 µM | – | EC50 ([3]; read-out: EC50 OC43, A549-mRuby cells, staining 2 days after infection): 0.5 µM
CCN(CC)CCOCCOC(=O)C1(c2ccccc2)CCCC1.O=C(O)CC(O)(CC(=O)O)C(=O)O [Pentoxyverine Citrate] | 1 | 1 | 9.3% | 10.8% | 7.7% | 5.0 | 0 | 5.7 | 0 | 5.5 µM | 3.6 µM | – | –
COC(=O)N[C@H](C(=O)N1CCC[C@H]1c1ncc(-c2ccc3c(c2)O[C@@H](c2ccccc2)n2c-3cc3cc(-c4cnc([C@@H]5CCCN5C(=O)[C@@H](NC(=O)OC)C(C)C)[nH]4)ccc32)[nH]1)C(C)C [Elbasvir] | 1 | 1 | 20.1% | 18.8% | 21.4% | 4.7 | 0 | 5.3 | 0 | 0.17 µM | > 10 µM | – | inhibition of SARS-CoV-2 infection (in words) [4]: did not inhibit SARS-CoV-2 infection
CCCCOC(=O)c1ccc(O)cc1 [Butylparaben] | 1 | 1 | 5.2% | 7% | 3.5% | 3.3 | 0 | 3.6 | 0 | 1.7 µM | > 10 µM | – | –
